Patent publication US11590101B2, “Use of a composition comprising 7-hydroxymatairesinol” (LINNEA S.A., priority 2017, dated 2023)

Legend:
[1] = HMR plasma levels assay (LC-MS/MS); assay type: in vivo; conditions: rat, oral, rats fed 4 weeks with 5% sucrose enriched food with HMR (10 mg/Kg per day), all active treatment groups
Protocol: Concentration of HMR and its major metabolite enterolactone was measured in plasma samples (50 μL) from rats fed for 4 weeks with 5% sucrose enriched food with HMR, using an LC-MS/MS system (AP14500 Qtrap ABSciex).
Calibration curves in the range from 0.1 ng/mL to 100 ng/mL were obtained from measurements on control samples containing the pure analytes, prepared from stock solutions of HMR and enterolactone in MeOH at the concentration of 1 mg/mL. Said stock solutions were diluted in acetonitrile (ACN) at a concentration of 250 μg/mL, then working solutions were prepared by sequential dilution in ACN.
45 μL of plasma and 5 μL of working solution were added to 300 μL of an ACN solution containing the internal standard catechin (conc. 200 ng/mL). After mixing, samples were centrifuged for 5 min at 3000 g at 5° C., and injected into LC-MS/MS.
The plasma samples from the in vivo treatment were prepared subjecting 50 μl of sample to centrifugation for 5 min at 3000 g at 5° C., and were injected into LC-MS/MS.
Calibration curves allowed determining, by comparison, the amount of each analytes in the plasma samples obtained from the rats of the study.

[2] = test system: rodent model of Parkinson's disease-like nigrostriatal neurodegeneration caused by stereotaxic injection of 6-OHDA; test: Nigrostriatal damage evaluation by TH immunohistochemistry in 6-OHDA model; assay type: in vivo, rat
[3] = test system: microglia in the lesioned SNc; test: Neuroinflammation evaluation through microglia activation assessment (CD11b staining of lesioned SNc); assay type: in vivo, rat; parameters: key to Colburn's score (microglia morphology): Resting stage (score 0): microglial cells are ramified, well spaced-out, with a small cell body.; Stage 1 (score +): microglial cells are ramified, with a decreased intercellular space.; Stage 2 (score ++): microglial cells show a loss of ramification and increased density.; Stage 3 (score +++): microglial cells show short and think ramifications; conditions: for Colburn's score (microglia morphology): control group ++
Protocol: The evaluation of the 6-OHDA induced neuroinflammation was carried out via immunofluorescent staining of coronal SNc sections of both HMR-treated and control animals.
Microglia activation was assessed by observing sections of the lesioned SNc stained for CD11 b, under low and medium magnification (20×-40×), both quantitatively, by counting the microglial cells in the lesioned SNc, and qualitatively, analysing the morphological changes of the cells.
Mouse anti CD11b (MCA275R, Serotec, 1:300) primary antibody was used to assess microglia activation and density in the SNc. Anti-TH primary antibody was added for localization and cell count. Goat anti-mouse AlexaFluor488 and goat anti-rabbit AlexaFluor594 (Life Sciences, 1:300) were used as secondary antibodies.
Cell count was performed by analysing three different SNc sections, chosen according to rostro-caudal coordinates.
Morphological changes mirroring the state of activation were scored according to the Colburn scale. Cell density was assessed by counting CD11 b+ cells from a stack of 16 pictures (in a 0.04 mm^2 frame, 1 μm-thick, 40× magnification) taken from three discrete areas of the same SNc section.
Colburn's scale takes into account four activation stages, which differ for the cells morphology and density, and are summarized below.
Resting stage (score 0): microglial cells are ramified, well spaced-out, with a small cell body.
Stage 1 (score +): microglial cells are ramified, with a decreased intercellular space.
Stage 2 (score ++): microglial cells show a loss of ramification and increased density.
Stage 3 (score +++): microglial cells show short and think ramifications.

[4] = test system: microglia in the lesioned SNc; test: Analysis of microglia polarization (CD32+ M1 / CD206+ M2); assay type: in vivo, rat; conditions: POST group; vehicle mainly M1, no M2 detected
Protocol: The analysis of microglia polarization was performed by evaluating the percentage of CD32+ and CD206+ cells, respectively M1 and M2 phenotypes marker, of the total microglia cells in the lesioned SNc, using respectively CD32 or CD206 (Santa Cruz, 1:300) antibodies.
Since no significant differences in microglial activation were observed between vehicle-treated animals and animals that received HMR before the intra-striatal injection of 6-OHDA, microglia polarization was evaluated only in the groups treated with HMR after 6-OHDA infusion.

[5] = Oxidative stress evaluation (plasma GSH/GSSG, Glutathione assay kit); assay type: in vivo, rat; conditions: POST group; not reaching statistical significance
Protocol: Plasma levels of reduced (GSH) and oxidized (GSSG) glutathione were estimated by using a biochemical Glutathione assay kit (Cayman Chemical), as an index of antioxidant effect of HMR treatment.
Results were expressed as a GSH/GSSG ratio.
Since no significant difference in neuroinflammation was observed between vehicle-treated animals and animals that received HMR before the intra-striatal injection of 6-OHDA, oxidative stress was evaluated only in the groups treated with HMR after 6-OHDA infusion.

[6] = Food consumption and body weight monitoring; assay type: in vivo, rat; conditions: monitored daily throughout the experiments
Text: Food consumption and body weight changes were monitored daily.

[7] = PRE group, day 28 post-surgery, same in HMR-treated and control animals

Q: For `COc1cc(CC2C(=O)OCC2C(O)c2ccc(O)c(OC)c2)ccc1O` (centres unmarked) [HMR, 7-hydroxymatairesinol], which concentration at 4 weeks [1] is on record?
A: The concentration at 4 weeks was 0.92 ± 0.74 ng/mL.

Q: And the “Reduction of TH+ terminal loss in lesioned striatum versus control” value ([2]; POST group: HMR 10 mg/Kg per day for 4 weeks after 6-OHDA, day 28, p<0.05)?
A: Its value is “about 32%”.

Q: What about the “Reduction of the 6-OHDA induced loss of TH+ neurons in lesioned SNc versus vehicle” value ([2]; POST group: HMR 10 mg/Kg per day for 4 weeks after 6-OHDA, day 28, p=0.055) of the same compound?
A: The value was “about 20%”.

Q: And the “TH+ neurons depletion in the SNc, lesioned side versus contralateral hemisphere” value [2, 7]?
A: Its value is “up to 55%”.

Q: What about the “TH+ terminals loss in the striatum, lesioned side” value [2, 7] of the same compound?
A: Its value is no more than 65%.

Q: What about the “Nigrostriatal damage (striatal or SNc level) versus vehicle-treated animals” value ([2]; PRE group: HMR 10 mg/Kg per day in food for 4 weeks before 6-OHDA) of the same compound?
A: The value was “no differences in nigrostriatal damage”.

Q: What about the “Colburn's score (microglia morphology)” value ([3]; POST group (HMR after 6-OHDA)) of the same compound?
A: Its value is “+”.

Q: And the “Density of CD11b+ cells in the SNc” value ([3]; POST group, vehicle-treated group 750 cells/mm^2, significant decrease)?
A: The value was 550 cells/mm^2.

Q: What about the “Microglial cell count versus vehicle-treated animals” value ([3]; PRE group) of the same compound?
A: The value was “no differences in the microglial cell count”.

Q: What about the “Colburn's score (microglia morphology)” value ([3]; PRE group (HMR before 6-OHDA)) of the same compound?
A: Its value is “++”.

Q: What about the “Number of CD11b+ cells per mm^2 of SNc” value ([3]; PRE group, average, both HMR and vehicle groups) of the same compound?
A: Its value is 750 cells/mm^2.

Q: And the “Microglia polarization phenotype (M1 CD32+ / M2 CD206+)” value [4]?
A: The value was “mainly oriented toward the neuroprotective, M2 (CD11b+/CD206+) phenotype”.

Q: What about the “Plasma GSH/GSSG ratio versus vehicle-treated animals” value [5] of the same compound?
A: The value was “trend toward an increased GSH/GSSG ratio”.

Q: What about the “Food intake or weight gain, treated versus untreated rats” value [6] of the same compound?
A: Its value is “No differences”.
